According to the supplement of paper PMC13380429:
± gives the standard deviation of the averaged measurements.

Assays:
Conditions in all cases: 72 h
Calu-3 [1] = assay: drug sensitivity score (DSS) for viability; higher = more toxic; extreme values may be limits of the assay
Caco-2 [2] = assay: as above
HepG2 [3] = assay: as above
U2OS [4] = assay: as above
Vero E6 [5] = assay: as above
Calu-3 [6] = assay: cell viability relative to DMSO; higher = less toxic
Caco-2 [7] = assay: as above
HepG2 [8] = assay: as above
U2OS [9] = assay: as above
Vero E6 [10] = assay: as above
Calu-3 [11] = assay: relative viability EC50 (midpoint between 100% and the lowest measured viability); higher = less toxic
Caco-2 [12] = assay: as above
HepG2 [13] = assay: as above
U2OS [14] = assay: as above
Vero E6 [15] = assay: as above

| Structure (SMILES) | drug sensitivity score (Calu-3 [1]) | drug sensitivity score (Caco-2 [2]) | drug sensitivity score (HepG2 [3]) | drug sensitivity score (U2OS [4]) | drug sensitivity score (Vero E6 [5]) | cell viability (Calu-3 [6]; 1 nM) | cell viability (Calu-3 [6]; 10 nM) | cell viability (Calu-3 [6]; 100 nM) | cell viability (Calu-3 [6]; 1000 nM) | cell viability (Calu-3 [6]; 10000 nM) | cell viability (Caco-2 [7]; 1 nM) | cell viability (Caco-2 [7]; 10 nM) | cell viability (Caco-2 [7]; 100 nM) | cell viability (Caco-2 [7]; 1000 nM) | cell viability (Caco-2 [7]; 10000 nM) | cell viability (HepG2 [8]; 1 nM) | cell viability (HepG2 [8]; 10 nM) | cell viability (HepG2 [8]; 100 nM) | cell viability (HepG2 [8]; 1000 nM) | cell viability (HepG2 [8]; 10000 nM) | cell viability (U2OS [9]; 1 nM) | cell viability (U2OS [9]; 10 nM) | cell viability (U2OS [9]; 100 nM) | cell viability (U2OS [9]; 1000 nM) | cell viability (U2OS [9]; 10000 nM) | cell viability (Vero E6 [10]; 1 nM) | cell viability (Vero E6 [10]; 10 nM) | cell viability (Vero E6 [10]; 100 nM) | cell viability (Vero E6 [10]; 1000 nM) | cell viability (Vero E6 [10]; 10000 nM) | relative viability EC50 (Calu-3 [11]) | relative viability EC50 (Caco-2 [12]) | relative viability EC50 (HepG2 [13]) | relative viability EC50 (U2OS [14]) | relative viability EC50 (Vero E6 [15]) |
| --- | --- | --- | --- | --- | --- | --- | --- | --- | --- | --- | --- | --- | --- | --- | --- | --- | --- | --- | --- | --- | --- | --- | --- | --- | --- | --- | --- | --- | --- | --- | --- | --- | --- | --- | --- |
| O=[N+]([O-])c1cc(Cl)ccc1S(=O)(=O)c1ccccc1 [BTB1] | 0 | 0 | 0 | 0 | 0 | 97.1% | 98.2% | 107% | 103% | 115% | 95.8% | 90.2% | 97.5% | 98.6% | 100% | 99.2% | 103% | 82.7% | 88.1% | 108% | 98.5% | 95.4% | 102% | 103% | 102% | 97% | 94.4% | 93.9% | 97.9% | 101% | > 10 µM | > 10 µM | > 10 µM | > 10 µM | > 10 µM |
| CC(N)Cc1c[nH]c2ccc(OCc3cccs3)cc12 (stereo not given) [BW-723C86] | 0.7 | 0 | 1 | 0 | 0 | 109% | 95.6% | 98.6% | 104% | 76.5% | 99.8% | 97.7% | 93% | 94.8% | 98.8% | 102% | 107% | 96.8% | 95.5% | 81% | 102% | 98.2% | 99% | 98.2% | 96.9% | 96% | 94.9% | 95.1% | 96.1% | 89.1% | > 10 µM | > 10 µM | > 10 µM | > 10 µM | > 10 µM |
| CCS(=O)(=O)N1CCC([C@@H](C)n2c(C)c(C(=O)NCc3c(OC)cc(C)[nH]c3=O)c3ccccc32)CC1 [CPI-169] | 0 | 0 | 0 | 0 | 0 | 97.3% | 102% | 98.7% | 94.3% | 97.4% | 95.8% | 94.7% | 101% | 100% | 95% | 104% | 103% | 104% | 94.3% | 101% | 92.1% | 101% | 99.3% | 105% | 102% | 100% | 96.7% | 96.9% | 99.7% | 103% | > 10 µM | > 10 µM | > 10 µM | > 10 µM | > 10 µM |
| O=C(O)[C@H](Cc1ccc(Nc2nccc3ccncc23)cc1)NC1=C(Br)C(=O)C12CCCCC2 [CT-7758] | 0 | 0 | 0 | 0 | 0 | 108% | 105% | 95.3% | 89.6% | 104% | 97.5% | 100% | 88.9% | 105% | 102% | 99.3% | 95.4% | 105% | 101% | 101% | 101% | 104% | 96.6% | 98.6% | 96.5% | 97.6% | 104% | 93.3% | 98.2% | 93.4% | > 10 µM | > 10 µM | > 10 µM | > 10 µM | > 10 µM |
| CC(=O)OCC(=O)[C@@]1(O)CC[C@H]2[C@@H]3CCC4=CC(=O)CC[C@]4(C)[C@@]3(F)[C@@H](O)C[C@@]21C [FLUDROCORTISONE ACETATE] | 0 | 0 | 0.6 | 0 | 0 | 97.7% | 94.4% | 93% | 85.1% | 104% | 102% | 102% | 99.5% | 92.8% | 101% | 104% | 95.9% | 104% | 87.5% | 95.3% | 98.1% | 101% | 95.8% | 94.7% | 93.1% | 97.7% | 99.8% | 96.5% | 96.5% | 97.7% | > 10 µM | > 10 µM | > 10 µM | > 10 µM | > 10 µM |
| COc1ccc(COc2ccc(Cc3cnc(N)nc3N)cc2OC)cc1 [GW-2580] | 0 | 0 | 0 | 0 | 0 | 110% | 102% | 97.2% | 102% | 99.7% | 98.2% | 97.6% | 95.7% | 102% | 91.2% | 113% | 108% | 108% | 99.5% | 108% | 99.2% | 99.3% | 94.3% | 103% | 92.2% | 95.3% | 97.9% | 100% | 98.3% | 96% | > 10 µM | > 10 µM | > 10 µM | > 10 µM | > 10 µM |
| N[C@H]1CCN(O)C1=O [HA-966-(S)-(-)] | 0 | 0 | 0 | 0 | 0 | 104 ± 4.8% | 95.8 ± 4.6% | 99.6 ± 2.1% | 94.7 ± 7.3% | 97.6 ± 0.71% | 103 ± 1.2% | 86.4 ± 7.8% | 106 ± 5.9% | 96 ± 3.5% | 102 ± 5.2% | 93.2% | 107% | 100% | 104% | 106% | 97.6 ± 2.7% | 96.8 ± 2% | 98.5 ± 3.2% | 96.9 ± 0.71% | 97.2 ± 3.2% | 96.8 ± 9.3% | 95.3% | 93.35 ± 0.35% | 97.6 ± 3.4% | 102 ± 4.7% | > 10 µM | > 10 µM | > 10 µM | > 10 µM | > 10 µM |
| NCCCCCNCC12CC3CC(CC(C3)C1)C2 [IEM1754] | 0.7 | 0 | 0 | 0 | 0 | 108% | 106% | 91% | 97.8% | 82.1% | 104% | 97.4% | 101% | 104% | 102% | 106% | 89.3% | 98.1% | 97.8% | 97.9% | 98.6% | 106% | 100% | 100% | 99% | 98.6% | 98.6% | 94.7% | 97.3% | 102% | > 10 µM | > 10 µM | > 10 µM | > 10 µM | > 10 µM |
| CC1(C)CN2C(CS/C(=N\C3CCCCC3)NC3CCCCC3)=CSC2=N1 [IT1t] | 2.2 | 0 | 0 | 0.1 | 0 | 96.4% | 116% | 100% | 89.7% | 75.4% | 91.6% | 87.6% | 99.5% | 94.8% | 82% | 96.7% | 102% | 96.7% | 102% | 88.8% | 97.1% | 95.8% | 102% | 97.5% | 88.8% | 94.5% | 95.7% | 92.1% | 99.4% | 96.9% | > 10 µM | > 10 µM | > 10 µM | > 10 µM | > 10 µM |
| COc1ccc2c3c([nH]c2c1)[C@H](CC(C)C)N1C(=O)[C@H](CCC(=O)OC(C)(C)C)NC(=O)[C@@H]1C3 [Ko143] | 0 | 0 | 0 | 0 | 0 | 89.8% | 100% | 97.7% | 98.6% | 97.9% | 95.7% | 99.6% | 91.8% | 91.4% | 93% | 101% | 86.3% | 92.5% | 85.6% | 97.9% | 98.7% | 101% | 98.1% | 100% | 94.1% | 99.3% | 96.7% | 101% | 93% | 97.7% | > 10 µM | > 10 µM | > 10 µM | > 10 µM | > 10 µM |
| CN(C)c1ccc(C(=O)NCCCCCCC(=O)NO)cc1 [M-344] | 11.8 | 9.2 | 14.4 | 11.7 | 10.6 | 101% | 93.7% | 77.2% | 55.3% | 13.6% | 101% | 99.4% | 103% | 75.6% | 1.5% | 106% | 92.8% | 80.2% | 37.9% | 0.3% | 99.2% | 94.6% | 93.9% | 47.2% | 1.1% | 97.5% | 101% | 92.1% | 56% | 0% | 0.581 µM | 1.56 µM | 0.504 µM | 0.891 µM | 1.14 µM |
| Cc1cccc(C#Cc2ccccc2)n1 [MPEP] | 0.1 | 0 | 0 | 0 | 0 | 91.5% | 95.5% | 88.2% | 89.6% | 91.1% | 98.7% | 94.5% | 98.1% | 102% | 95% | 98.8% | 94.6% | 101% | 101% | 103% | 103% | 100% | 98.6% | 103% | 94% | 98.1% | 94.9% | 96.6% | 97.1% | 95% | > 10 µM | > 10 µM | > 10 µM | > 10 µM | > 10 µM |
| CC(=O)NCCc1c[nH]c2ccccc12 [N-acetyltryptamine] | 0 | 0 | 0 | 0 | 0 | 92.8% | 96% | 94.3% | 105% | 99.4% | 93.5% | 94.7% | 99.4% | 96.5% | 102% | 105% | 95.7% | 97.1% | 103% | 104% | 95.4% | 102% | 94.5% | 99.3% | 101% | 97% | 92.4% | 99% | 91.4% | 107% | > 10 µM | > 10 µM | > 10 µM | > 10 µM | > 10 µM |
| Nc1nc(OCc2ccccc2)c2nc[nH]c2n1 [O6-benzylguanine] | 0 | 0 | 0 | 0 | 0 | 103% | 89.5% | 107% | 88.1% | 105% | 105% | 95.2% | 98% | 98.7% | 106% | 95.9% | 105% | 96.8% | 108% | 94.6% | 101% | 99.9% | 100% | 97.3% | 104% | 93.6% | 108% | 87.3% | 103% | 90.4% | > 10 µM | > 10 µM | > 10 µM | > 10 µM | > 10 µM |
